The record followed here is patent publication US20090264447A1, “Pyrimidine compounds for combating pathogenic fungi and cancer” (BASF SE, priority 2006, published 2009).

For this test, the system named is HeLa B cells. In words: Cell cycle inhibition in HeLa cells (FACS, G0/G1 to G2/M ratio). The conditions noted are these: read-out: IC50 (concentration at which 50% of the cells are inhibited in their cell cycle), 20 h incubation with compound. The test is classed as cell-based. The protocol:
HeLa B cells were cultivated in DMEM (Life Technologies Cat. No. 21969-035) containing fetal calf serum (FCS, Life Technologies Cat. No. 10270-106) in 180 cm^2 containers at 37° C., 92% humidity and 7% CO2.
5×10^4 cells per well were added into a 24-well plate. After 20 h, the compounds to be tested were added such that the final concentration was 1×10^−6, 3.3×10^−7, 1.1×10^−7, 3.7×10^−8, 1.2×10^−8 and 1×10^−9 M in a final volume of 500 μl. 6 wells contained only DMSO as control. The treated cells were incubated as described above for a further 20 h. The cells were then examined under the microscope for dead cells. The 24-well plate was then centrifuged at 1200 rpm at 20° C., an acceleration in position 7 and the brake position 5 (Eppendorf centrifuge 5804R) for 5 min.
The supernatant was removed and the cells were lysed with 0.5 ml of RNase buffer (10 mM sodium citrate, 0.1% Nonidet NP40, 50 μg/ml RNase, 10 μg/ml propidium iodide) per well. The plates were then incubated at room temperature in the dark for at least 30 min, and the samples were then transferred into FACS tubes. These were measured in an FACS instrument (Beckton Dickinson) with the following settings:
Instrument settings at the FACS Calibur:
The ratio of cells in the G0/G1 phase to those in the G2/M phase was calculated and compared to the value for the control (DMSO).

For `COCCCOc1cc(F)c(-c2c(Cl)nc(-n3cccn3)nc2NC(C)C(C)C)c(F)c1` (stereo not drawn) [Example 16], the IC50 was 26 nM. Regarding `CNCCCOc1cc(F)c(-c2c(Cl)nc(C#N)nc2N2CCCCCC2)c(F)c1` [Example 33], the IC50 came out at 480 nM. Regarding `CNCCCOc1cc(F)c(-c2c(Cl)nc(-n3cncn3)nc2N2CCC(C)CC2)c(F)c1` [Example 21], the IC50 worked out at 18 nM. Turning to `CNCCCOc1cc(F)c(-c2c(Cl)nc(C(=O)c3ccc(C)cc3)nc2N2CCCCCC2)c(F)c1` [Example 39], the IC50 was determined as 580 nM. In the case of `COCCCOc1cc(F)c(-c2c(Cl)nc(-n3ccnn3)nc2NC(C)C(C)(C)C)c(F)c1` (stereo not drawn) [Example 18] it was 29 nM.

For `COCCCOc1cc(F)c(-c2c(Cl)nc(-n3ccnn3)nc2NC(C)C(C)C)c(F)c1` (stereo not drawn) [Example 17], the IC50 turned out to be 32 nM.

With `COCCCOc1cc(F)c(-c2c(Cl)nc(C#N)nc2NC(C)C(C)C)c(F)c1` (stereo not drawn) [Example 36], the IC50 was determined as 59 nM. As to `COCCCOc1cc(F)c(-c2c(Cl)nc(-n3nccn3)nc2NC(C)C(C)C)c(F)c1` (stereo not drawn) [Example 19], the IC50 is 26 nM. Take `COCCCOc1cc(F)c(-c2c(Cl)nc(C#N)nc2N2CCC(C)CC2)c(F)c1` [Example 31]: the IC50 was found to be 120 nM. On to `CC(Nc1nc(C#N)nc(Cl)c1-c1c(F)cc(OCCCCl)cc1F)C(C)(C)C` (stereo not drawn) [Example 37], for which the IC50 was determined as 280 nM. As for `COCCCOc1cc(F)c(-c2c(Cl)nc(C(N)=NOC)nc2NC(C)C(C)(C)C)c(F)c1` (stereo not drawn) [Example 7], the IC50 is 56 nM.

As to `CON=C(N)c1nc(Cl)c(-c2c(F)cc(OCCCN(C)C)cc2F)c(N2CCC(C)CC2)n1` [Example 2], the IC50 is 27 nM. `CC1CCN(c2nc(-n3cccn3)nc(Cl)c2-c2c(F)cc(OCCCN(C)C(=O)OC(C)(C)C)cc2F)CC1` [Example 11]: the IC50 was 570 nM. Consider `CC1CCN(c2nc(C#N)nc(Cl)c2-c2c(F)cc(OCCCN(C)C)cc2F)CC1` [Example 27], for which the IC50 worked out at 220 nM. In the case of `CC1CCN(c2nc(-n3cncn3)nc(Cl)c2-c2c(F)cc(OCCCN(C)C(=O)OC(C)(C)C)cc2F)CC1` [Example 22] it was 290 nM; in that of `CC1CCN(c2nc(-n3cncn3)nc(Cl)c2-c2c(F)cc(OCCCOc3cc(Cl)ncn3)cc2F)CC1` [Example 23], 330 nM; in that of `COCCCOc1cc(F)c(-c2c(Cl)nc(-n3cncn3)nc2NC(C)C(C)C)c(F)c1` (stereo not drawn) [Example 25], 42 nM.

`COCCCOc1cc(F)c(-c2c(Cl)nc(-n3cccn3)nc2NC(C)C(C)(C)C)c(F)c1` (stereo not drawn) [Example 15]: the IC50 came to 32 nM. Turning to `COCCCOc1cc(F)c(-c2c(Cl)nc(C#N)nc2NC(C)C(C)(C)C)c(F)c1` (stereo not drawn) [Example 35], the IC50 was 190 nM. For the molecule `COCCCOc1cc(F)c(-c2c(Cl)nc(-n3nccn3)nc2NC(C)C(C)(C)C)c(F)c1` (stereo not drawn) [Example 20], the IC50 was found to be 27 nM. For `COCCCOc1cc(F)c(-c2c(Cl)nc(-n3cncn3)nc2NC(C)C(C)(C)C)c(F)c1` (stereo not drawn) [Example 24], the IC50 is 42 nM. To `CC(C)C(C)Nc1nc(C#N)nc(Cl)c1-c1c(F)cc(OCCCCl)cc1F` (stereo not drawn) [Example 38] belongs 330 nM; to `CC1CCN(c2nc(-n3cccn3)nc(Cl)c2-c2c(F)cc(OCCCOc3cc(Cl)ncn3)cc2F)CC1` [Example 12], 470 nM; to `CC1CCN(c2nc(C#N)nc(Cl)c2-c2c(F)cc(OCCCOc3cc(Cl)ncn3)cc2F)CC1` [Example 32], 570 nM.
